Source: PubChem BioAssay AID1963443 (Molecular Pharmacology Branch, DTP, NCI, 2024)
Several values for one entry are separate records, joined by “and”; a condition that tells them apart may be missing. Equal values may be shown once.

System: MDA-MB-231 complex spheroids, growth inhibition
Assay: Anticancer human tumor MDA-MB-231 cell line growth inhibition [Asc];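 note: spheroids exposed to compounds for 7 days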
Conditions: for viability, T/C: stronger effect = lower value
Outline: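 Tumor cells were grown as multicellular spheroids with stromal HUVEC and mesenchymal stem cells and treated singly or in combination. Concentrations fell in half-log steps from the clinical Cmax, or from 10 microM where none was known.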

[1] = curve of first compound, second compound 0.03 µM
[2] = curve of first compound, second compound 0.0949 µM
[3] = curve of first compound, second compound 0.3 µM
[4] = curve of first compound, second compound 0.949 µM
[5] = curve of first compound, second compound 3 µM
[6] = second compound 0.03 µM, first compound 0.000316 µM
[7] = second compound 0.03 µM, first compound 0.001 µM
[8] = second compound 0.03 µM, first compound 0.00316 µM
[9] = second compound 0.03 µM, first compound 0.01 µM
[10] = second compound 0.03 µM, first compound 0.0316 µM
[11] = second compound 0.03 µM, first compound 0.1 µM
[12] = second compound 0.0949 µM, first compound 0.000316 µM
[13] = second compound 0.0949 µM, first compound 0.001 µM
[14] = second compound 0.0949 µM, first compound 0.00316 µM
[15] = second compound 0.0949 µM, first compound 0.01 µM
[16] = second compound 0.0949 µM, first compound 0.0316 µM
[17] = second compound 0.0949 µM, first compound 0.1 µM
[18] = second compound 0.3 µM, first compound 0.000316 µM
[19] = second compound 0.3 µM, first compound 0.001 µM
[20] = second compound 0.3 µM, first compound 0.00316 µM
[21] = second compound 0.3 µM, first compound 0.01 µM
[22] = second compound 0.3 µM, first compound 0.0316 µM
[23] = second compound 0.3 µM, first compound 0.1 µM
[24] = second compound 0.949 µM, first compound 0.000316 µM
[25] = second compound 0.949 µM, first compound 0.001 µM
[26] = second compound 0.949 µM, first compound 0.00316 µM
[27] = second compound 0.949 µM, first compound 0.01 µM
[28] = second compound 0.949 µM, first compound 0.0316 µM
[29] = second compound 0.949 µM, first compound 0.1 µM
[30] = second compound 3 µM, first compound 0.000316 µM
[31] = second compound 3 µM, first compound 0.001 µM
[32] = second compound 3 µM, first compound 0.00316 µM
[33] = second compound 3 µM, first compound 0.01 µM
[34] = second compound 3 µM, first compound 0.0316 µM
[35] = second compound 3 µM, first compound 0.1 µM

## Cn1ncnc1[C@H]1c2n[nH]c(=O)c3cc(F)cc(c23)N[C@@H]1c1ccc(F)cc1 + CCN1C(C(=O)NC23CCC(C(=O)O)(CC2)CC3)C(c2cccc(Cl)c2F)C2(C(=O)Nc3cc(Cl)ccc32)C12CCCCC2
[1]
  IC50: > 100 nM
[2]
  IC50: > 100 nM
[3]
  IC50: > 100 nM
[4]
  IC50: > 100 nM
[5]
  IC50: > 100 nM
[6]
  viability, T/C: 101%
[7]
  viability, T/C: 96.3%
[8]
  viability, T/C: 90.4%
[9]
  viability, T/C: 96.2%
[10]
  viability, T/C: 85%
[11]
  viability, T/C: 86%
[12]
  viability, T/C: 112%
[13]
  viability, T/C: 101%
[14]
  viability, T/C: 93.6%
[15]
  viability, T/C: 95.9%
[16]
  viability, T/C: 90.2%
[17]
  viability, T/C: 88.4%
[18]
  viability, T/C: 110%
[19]
  viability, T/C: 110%
[20]
  viability, T/C: 98.5%
[21]
  viability, T/C: 102%
[22]
  viability, T/C: 89.8%
[23]
  viability, T/C: 85.4%
[24]
  viability, T/C: 108%
[25]
  viability, T/C: 109%
[26]
  viability, T/C: 102%
[27]
  viability, T/C: 97.8%
[28]
  viability, T/C: 93.6%
[29]
  viability, T/C: 91.8%
[30]
  viability, T/C: 100%
[31]
  viability, T/C: 99.4%
[32]
  viability, T/C: 94.4%
[33]
  viability, T/C: 91.8%
[34]
  viability, T/C: 82%
[35]
  viability, T/C: 87.8%

## O=C(c1cc(Cc2n[nH]c(=O)c3ccccc23)ccc1F)N1CCN(C(=O)C2CC2)CC1 + Cc1c(S(C)(=O)=O)c(-c2cc(F)cc(N3CCN(c4ccc(NS(=O)(=O)c5ccc(NC(CCN6CCC(C(=O)OCCCP(=O)(O)O)CC6)CSc6ccccc6)c(S(=O)(=O)C(F)(F)F)c5)cc4)CC3)c2)c(-c2ccc(Cl)cc2)n1C(C)C
Curve of first compound, second compound 0.1 µM
  IC50: > 10000 nM
Curve of first compound, second compound 0.316 µM
  IC50: > 10000 nM
Curve of first compound, second compound 1 µM
  IC50: > 10000 nM
Curve of first compound, second compound 3.16 µM
  IC50: 7460 nM
Curve of first compound, second compound 10 µM
  IC50: 6790 nM
Second compound 0.1 µM, first compound 0.0316 µM
  viability, T/C: 96.8%
Second compound 0.1 µM, first compound 0.1 µM
  viability, T/C: 98.9%
Second compound 0.1 µM, first compound 0.316 µM
  viability, T/C: 94.9%
Second compound 0.1 µM, first compound 1 µM
  viability, T/C: 85.7%
Second compound 0.1 µM, first compound 3.16 µM
  viability, T/C: 78.3%
Second compound 0.1 µM, first compound 10 µM
  viability, T/C: 68.9%
Second compound 0.316 µM, first compound 0.0316 µM
  viability, T/C: 91.7%
Second compound 0.316 µM, first compound 0.1 µM
  viability, T/C: 96.2%
Second compound 0.316 µM, first compound 0.316 µM
  viability, T/C: 100%
Second compound 0.316 µM, first compound 1 µM
  viability, T/C: 87.2%
Second compound 0.316 µM, first compound 3.16 µM
  viability, T/C: 87%
Second compound 0.316 µM, first compound 10 µM
  viability, T/C: 65.6%
Second compound 1 µM, first compound 0.0316 µM
  viability, T/C: 97.7%
Second compound 1 µM, first compound 0.1 µM
  viability, T/C: 95.3%
Second compound 1 µM, first compound 0.316 µM
  viability, T/C: 88.8%
Second compound 1 µM, first compound 1 µM
  viability, T/C: 85%
Second compound 1 µM, first compound 3.16 µM
  viability, T/C: 77.5%
Second compound 1 µM, first compound 10 µM
  viability, T/C: 54.5%
Second compound 3.16 µM, first compound 0.0316 µM
  viability, T/C: 86.8%
Second compound 3.16 µM, first compound 0.1 µM
  viability, T/C: 93.8%
Second compound 3.16 µM, first compound 0.316 µM
  viability, T/C: 89.3%
Second compound 3.16 µM, first compound 1 µM
  viability, T/C: 83.9%
Second compound 3.16 µM, first compound 3.16 µM
  viability, T/C: 72.2%
Second compound 3.16 µM, first compound 10 µM
  viability, T/C: 42.3%
Second compound 10 µM, first compound 0.0316 µM
  viability, T/C: 102%
Second compound 10 µM, first compound 0.1 µM
  viability, T/C: 101%
Second compound 10 µM, first compound 0.316 µM
  viability, T/C: 96.8%
Second compound 10 µM, first compound 1 µM
  viability, T/C: 91%
Second compound 10 µM, first compound 3.16 µM
  viability, T/C: 75.7%
Second compound 10 µM, first compound 10 µM
  viability, T/C: 36.9%

## COc1c(OCCCN2CCOCC2)ccc2c3n(c(=NC(=O)c4cnc(N)nc4)nc12)CCN3
Compound 0.00316 µM
  viability, T/C: 83.7% and 92% and 96.1%
Compound 0.01 µM
  viability, T/C: 85.2% and 80.5% and 92.2%
Compound 0.0316 µM
  viability, T/C: 64.8% and 66.8% and 75.9%
Compound 0.1 µM
  viability, T/C: 47.6% and 48.4% and 60%
Compound 0.316 µM
  viability, T/C: 36.6% and 36.7% and 45.5%
Compound 1 µM
  viability, T/C: 32% and 32.1% and 41.6%
Curve of compound
  IC50: 82.5 nM and 91.6 nM and 226 nM

## CNC(C)C(=O)NC1CN(S(=O)(=O)c2cccc(S(=O)(=O)N3CCC4CCC(C(=O)NC(c5ccccc5)c5ccccc5)N4C(=O)C(NC(=O)C(C)NC)C3)c2)CCC2CCC(C(=O)NC(c3ccccc3)c3ccccc3)N2C1=O (centres undefined) + CCN1C(C(=O)NC23CCC(C(=O)O)(CC2)CC3)C(c2cccc(Cl)c2F)C2(C(=O)Nc3cc(Cl)ccc32)C12CCCCC2
[1]
  IC50: < 3.16 nM
[2]
  IC50: < 3.16 nM
[3]
  IC50: < 3.16 nM
[4]
  IC50: < 3.16 nM
[5]
  IC50: < 3.16 nM
[8]
  viability, T/C: 6.71%
[9]
  viability, T/C: 1.67%
[10]
  viability, T/C: 1.57%
[11]
  viability, T/C: 1.22%
Second compound 0.03 µM, first compound 0.316 µM
  viability, T/C: 1.14%
Second compound 0.03 µM, first compound 1 µM
  viability, T/C: 0.97%
[14]
  viability, T/C: 5.03%
[15]
  viability, T/C: 1.98%
[16]
  viability, T/C: 1.66%
[17]
  viability, T/C: 1.78%
Second compound 0.0949 µM, first compound 0.316 µM
  viability, T/C: 1.27%
Second compound 0.0949 µM, first compound 1 µM
  viability, T/C: 0.74%
[20]
  viability, T/C: 5.55%
[21]
  viability, T/C: 3.61%
[22]
  viability, T/C: 2.08%
[23]
  viability, T/C: 2.17%
Second compound 0.3 µM, first compound 0.316 µM
  viability, T/C: 0.84%
Second compound 0.3 µM, first compound 1 µM
  viability, T/C: 1.46%
[26]
  viability, T/C: 3.82%
[27]
  viability, T/C: 2.39%
[28]
  viability, T/C: 2.37%
[29]
  viability, T/C: 0.77%
Second compound 0.949 µM, first compound 0.316 µM
  viability, T/C: 0.84%
Second compound 0.949 µM, first compound 1 µM
  viability, T/C: 0.96%
[32]
  viability, T/C: 2.23%
[33]
  viability, T/C: 1%
[34]
  viability, T/C: 1.14%
[35]
  viability, T/C: 0.61%
Second compound 3 µM, first compound 0.316 µM
  viability, T/C: 0.68%
Second compound 3 µM, first compound 1 µM
  viability, T/C: 0.75%

## C=C(F)C(=O)N1CCN(c2nc(OCC3CCCN3C)nc3c2CCN(c2cccc4cccc(Cl)c24)C3)CC1CC#N (centres undefined)
Compound 0.0316 µM
  viability, T/C: 101% (2×) and 104%
Compound 0.1 µM
  viability, T/C: 103% and 99.7% and 93.1%
Compound 0.316 µM
  viability, T/C: 103% and 98.3% and 110%
Compound 1 µM
  viability, T/C: 101% and 94.9% and 103%
Compound 3.16 µM
  viability, T/C: 54.9% and 51.6% and 77.3%
Compound 10 µM
  viability, T/C: 0.35% and 0.45% and 1.25%
Curve of compound
  IC50: 3510 nM and 3280 nM and 4780 nM

## NC1CCC(NC2CC2c2ccccc2)CC1 (centres undefined) + CCN1C(C(=O)NC23CCC(C(=O)O)(CC2)CC3)C(c2cccc(Cl)c2F)C2(C(=O)Nc3cc(Cl)ccc32)C12CCCCC2
[1]
  IC50: > 100 nM
[2]
  IC50: > 100 nM
[3]
  IC50: > 100 nM
[4]
  IC50: > 100 nM
[5]
  IC50: > 100 nM
[6]
  viability, T/C: 91.2%
[7]
  viability, T/C: 94.5%
[8]
  viability, T/C: 93.4%
[9]
  viability, T/C: 95.2%
[10]
  viability, T/C: 91.8%
[11]
  viability, T/C: 96.2%
[12]
  viability, T/C: 101%
[13]
  viability, T/C: 103%
[14]
  viability, T/C: 101%
[15]
  viability, T/C: 101%
[16]
  viability, T/C: 100%
[17]
  viability, T/C: 102%
[18]
  viability, T/C: 102%
[19]
  viability, T/C: 104%
[20]
  viability, T/C: 101%
[21]
  viability, T/C: 102%
[22]
  viability, T/C: 102%
[23]
  viability, T/C: 105%
[24]
  viability, T/C: 105%
[25]
  viability, T/C: 105%
[26]
  viability, T/C: 105%
[27]
  viability, T/C: 105%
[28]
  viability, T/C: 104%
[29]
  viability, T/C: 106%
[30]
  viability, T/C: 90%
[31]
  viability, T/C: 91%
[32]
  viability, T/C: 89.8%
[33]
  viability, T/C: 88.2%
[34]
  viability, T/C: 87.5%
[35]
  viability, T/C: 89.2%
